Assay results reported in ChEMBL document CHEMBL3352775, “Identification of substituted 3-hydroxy-2-mercaptocyclohex-2-enones as potent inhibitors of human lactate dehydrogenase” (Bioorg Med Chem Lett, 2014).
Converted amounts (≈) assume the structure as drawn.

Legend:
Cytochrome P450 2D6 = Cytochrome P450 2D6 (Homo sapiens, UniProt P10635); assay: Inhibition of CYP2D6 (unknown origin); assay type: ADME
[1] = molecular target: T1, L-lactate dehydrogenase A chain (Homo sapiens, UniProt P00338); assay: Inhibition of human recombinant carboxy-terminal His-tagged LDHA by SPR assay
Cytochrome P450 1A2 = molecular target: T2, Cytochrome P450 1A2 (Homo sapiens, UniProt P05177); assay: Inhibition of CYP1A2 (unknown origin); assay type: ADME
T2 sequence (P05177 whole entry): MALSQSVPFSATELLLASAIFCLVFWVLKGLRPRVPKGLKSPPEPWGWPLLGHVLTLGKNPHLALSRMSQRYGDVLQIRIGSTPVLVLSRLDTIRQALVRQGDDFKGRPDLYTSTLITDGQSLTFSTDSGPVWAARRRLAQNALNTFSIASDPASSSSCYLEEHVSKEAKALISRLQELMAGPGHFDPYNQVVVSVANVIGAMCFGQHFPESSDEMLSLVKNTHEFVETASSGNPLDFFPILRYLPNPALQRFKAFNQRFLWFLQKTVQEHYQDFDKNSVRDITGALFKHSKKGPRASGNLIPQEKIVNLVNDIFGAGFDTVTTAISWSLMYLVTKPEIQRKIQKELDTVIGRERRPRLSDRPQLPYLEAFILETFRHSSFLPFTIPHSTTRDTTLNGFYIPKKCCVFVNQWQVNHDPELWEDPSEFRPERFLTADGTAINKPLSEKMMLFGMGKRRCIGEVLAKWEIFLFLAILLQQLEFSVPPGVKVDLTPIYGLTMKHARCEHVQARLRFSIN

[2] = Aqueous solubility of the compound in PBS buffer at pH 7.2; assay type: physicochemical
[3] = Clearance in human liver microsomes at 1 uM up to 60 mins by LC-MS/MS analysis; assay type: ADME
[4] = molecular target: T1, L-lactate dehydrogenase A chain; assay: Inhibition of human recombinant carboxy-terminal His-tagged LDHA by UV endpoint assay
[5] = Fraction unbound in rat plasma by LC-MS/MS analysis; assay type: ADME, cell-free
Cytochrome P450 3A4 = Cytochrome P450 3A4 (Homo sapiens, UniProt P08684); assay: Inhibition of CYP3A4 (unknown origin); assay type: ADME
[6] = Fraction unbound in human plasma by LC-MS/MS analysis; assay type: ADME, cell-free
[7] = Apparent permeability from apical to basolateral side in MDCK cells at 2 uM by LC-MS/MS analysis; assay type: ADME, cell-based, Canis lupus familiaris; settings: dog
[8] = Clearance in Sprague-Dawley rat liver microsomes at 1 uM up to 60 mins by LC-MS/MS analysis; assay type: ADME
Cytochrome P450 2C9 = Cytochrome P450 2C9 (Homo sapiens, UniProt P11712); assay: Inhibition of CYP2C9 (unknown origin); assay type: ADME
[9] = molecular target: L-lactate dehydrogenase B chain (Homo sapiens, UniProt P07195)
Description: Inhibition of human recombinant carboxy-terminal His-tagged LDHB by UV endpoint assay

[10] = Volume of distribution at steady state in Sprague-Dawley rat at 0.5 mg/kg, iv; assay type: ADME, organism-based; parameters: dose 0.5 mg/kg, route intravenous; settings: in vivo, read-out: Vdss
[11] = molecular target: T3, Malate dehydrogenase, mitochondrial (Homo sapiens, UniProt P40926); assay: Inhibition of human recombinant carboxy-terminal His-tagged MDH-2
T3 sequence (P40926 whole entry): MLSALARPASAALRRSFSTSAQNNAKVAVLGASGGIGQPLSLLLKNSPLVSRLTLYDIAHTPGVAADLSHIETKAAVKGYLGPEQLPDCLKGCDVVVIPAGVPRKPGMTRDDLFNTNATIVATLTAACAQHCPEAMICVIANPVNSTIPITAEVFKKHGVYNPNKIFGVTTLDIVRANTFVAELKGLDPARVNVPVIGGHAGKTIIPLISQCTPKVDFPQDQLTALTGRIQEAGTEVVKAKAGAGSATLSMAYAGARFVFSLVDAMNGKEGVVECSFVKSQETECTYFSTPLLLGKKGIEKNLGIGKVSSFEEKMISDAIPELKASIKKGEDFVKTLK

[12] = molecular target: T4, Malate dehydrogenase, cytoplasmic (Homo sapiens, UniProt P40925); assay: Inhibition of human recombinant carboxy-terminal His-tagged MDH-1
T4 sequence (P40925 whole entry): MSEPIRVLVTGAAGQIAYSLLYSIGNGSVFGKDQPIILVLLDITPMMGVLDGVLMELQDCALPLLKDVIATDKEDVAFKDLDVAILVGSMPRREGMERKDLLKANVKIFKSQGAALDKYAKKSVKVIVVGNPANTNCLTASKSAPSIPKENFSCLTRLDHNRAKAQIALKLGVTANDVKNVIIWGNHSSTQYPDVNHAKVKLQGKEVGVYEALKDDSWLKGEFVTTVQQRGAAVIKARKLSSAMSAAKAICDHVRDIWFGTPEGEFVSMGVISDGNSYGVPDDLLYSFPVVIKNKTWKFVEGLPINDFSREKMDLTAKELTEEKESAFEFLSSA

[13] = Half life in Sprague-Dawley rat plasma at 2 mg/kg, po; assay type: ADME, organism-based; parameters: dose 2 mg/kg, route oral
[14] = Half life in Sprague-Dawley rat plasma at 0.5 mg/kg, iv; assay type: ADME, organism-based; parameters: dose 0.5 mg/kg, route intravenous
[15] = Clearance in Sprague-Dawley rat plasma at 0.5 mg/kg, iv by LC-MS/MS analysis; assay type: ADME, organism-based; parameters: dose 0.5 mg/kg, route intravenous
[16] = Oral bioavailability in Sprague-Dawley rat plasma at 2 mg/kg; assay type: ADME, organism-based
[17] = AUC (0 to 24 hrs) in Sprague-Dawley rat at 0.5 mg/kg, iv; assay type: ADME, organism-based; parameters: time < 24 hr, dose 0.5 mg/kg, route intravenous; settings: plasma
[18] = AUC (0 to 24 hrs) in Sprague-Dawley rat at 2 mg/kg, po; assay type: ADME, organism-based; parameters: time < 24 hr, dose 2 mg/kg, route oral; settings: plasma
[19] = Dissociation constant, pKa of the compound; assay type: physicochemical
[20] = molecular target: T1, L-lactate dehydrogenase A chain; assay: Inhibition of human recombinant carboxy-terminal His-tagged LDHA by SPR assay in presence of +NADH
[21] = molecular target: T1, L-lactate dehydrogenase A chain; assay: Inhibition of human recombinant carboxy-terminal His-tagged LDHA by MS endpoint assay

Cytochrome P450 2C9, sequence (P11712 whole entry): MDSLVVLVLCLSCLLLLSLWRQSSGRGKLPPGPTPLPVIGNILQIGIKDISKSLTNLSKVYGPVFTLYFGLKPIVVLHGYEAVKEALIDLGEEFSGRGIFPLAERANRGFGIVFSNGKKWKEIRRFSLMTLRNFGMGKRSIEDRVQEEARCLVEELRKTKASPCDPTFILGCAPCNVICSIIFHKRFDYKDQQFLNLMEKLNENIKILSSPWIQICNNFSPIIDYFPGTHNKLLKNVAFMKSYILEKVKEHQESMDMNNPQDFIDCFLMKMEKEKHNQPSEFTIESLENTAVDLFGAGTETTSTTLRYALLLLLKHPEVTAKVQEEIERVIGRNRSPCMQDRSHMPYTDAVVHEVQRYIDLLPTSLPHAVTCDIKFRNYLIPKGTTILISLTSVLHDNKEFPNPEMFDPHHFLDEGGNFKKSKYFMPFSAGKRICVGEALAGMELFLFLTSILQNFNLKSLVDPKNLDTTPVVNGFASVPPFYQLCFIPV
L-lactate dehydrogenase B chain, sequence (P07195 whole entry): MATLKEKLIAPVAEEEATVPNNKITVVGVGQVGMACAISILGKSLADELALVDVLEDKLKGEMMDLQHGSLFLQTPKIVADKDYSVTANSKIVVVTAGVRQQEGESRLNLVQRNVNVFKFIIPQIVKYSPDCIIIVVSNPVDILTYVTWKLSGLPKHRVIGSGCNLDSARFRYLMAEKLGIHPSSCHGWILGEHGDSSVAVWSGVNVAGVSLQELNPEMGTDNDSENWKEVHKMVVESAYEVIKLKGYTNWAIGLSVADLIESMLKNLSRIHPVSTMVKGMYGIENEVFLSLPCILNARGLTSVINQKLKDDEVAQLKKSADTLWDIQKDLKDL
Cytochrome P450 3A4, sequence (P08684 whole entry): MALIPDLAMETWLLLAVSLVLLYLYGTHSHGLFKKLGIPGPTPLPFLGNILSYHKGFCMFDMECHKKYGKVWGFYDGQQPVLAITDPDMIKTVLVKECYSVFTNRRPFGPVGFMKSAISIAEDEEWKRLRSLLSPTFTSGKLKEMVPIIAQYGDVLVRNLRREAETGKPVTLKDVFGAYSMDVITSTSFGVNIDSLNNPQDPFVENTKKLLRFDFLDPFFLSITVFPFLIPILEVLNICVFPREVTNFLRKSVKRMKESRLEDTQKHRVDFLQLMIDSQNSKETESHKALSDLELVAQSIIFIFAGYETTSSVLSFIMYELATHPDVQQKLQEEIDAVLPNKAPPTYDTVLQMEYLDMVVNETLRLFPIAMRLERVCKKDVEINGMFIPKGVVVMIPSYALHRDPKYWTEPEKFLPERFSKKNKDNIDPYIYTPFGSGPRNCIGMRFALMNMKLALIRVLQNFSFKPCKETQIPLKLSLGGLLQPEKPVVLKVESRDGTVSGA
Cytochrome P450 2D6, sequence (P10635 whole entry): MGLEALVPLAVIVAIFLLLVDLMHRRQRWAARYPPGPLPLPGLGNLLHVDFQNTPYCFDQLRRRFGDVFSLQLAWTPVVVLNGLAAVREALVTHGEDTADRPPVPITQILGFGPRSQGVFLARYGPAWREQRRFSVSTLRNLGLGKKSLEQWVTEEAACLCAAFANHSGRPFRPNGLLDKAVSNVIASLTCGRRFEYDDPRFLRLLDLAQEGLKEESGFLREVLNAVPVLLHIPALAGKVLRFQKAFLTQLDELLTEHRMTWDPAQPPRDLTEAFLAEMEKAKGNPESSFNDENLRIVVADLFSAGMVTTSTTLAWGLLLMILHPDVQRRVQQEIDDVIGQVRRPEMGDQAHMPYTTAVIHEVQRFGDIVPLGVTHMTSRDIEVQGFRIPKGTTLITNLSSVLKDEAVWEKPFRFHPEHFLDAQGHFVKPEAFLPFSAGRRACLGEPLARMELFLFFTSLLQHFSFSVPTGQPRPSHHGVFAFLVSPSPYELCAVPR

IC50 (Cytochrome P450 2D6) [µM]	Kd [1] [nM]	IC50 (Cytochrome P450 1A2) [µM]	solubility [2] [µM]	CLhep predicted at 1 µM [3] [mL/min/kg]	IC50 [4] [nM]	fraction unbound [5]	IC50 (Cytochrome P450 3A4) [µM]	fraction unbound [6]	Papp A→B at 2 µM [7] [×10⁻⁶ cm/s]	CLhep predicted at 1 µM [8] [mL/min/kg]	IC50 (Cytochrome P450 2C9) [µM]	IC50 [9] [µM]	also measured	SMILES
> 5	4300	> 5	147 (≈ 48.6 µg/mL)	3.9	4600	0.002	> 5	0.001	18	14	> 5			O=C1CC(c2ccccc2)CC(O)=C1Sc1ccccc1Cl (configuration not stated)
> 5	1500	> 5	118 (≈ 37.9 µg/mL)	1.6	1600	0.01	> 5	0.001	4.1	5.2	> 5			N#Cc1ccccc1SC1=C(O)CC(c2ccccc2)CC1=O (configuration not stated)
	13000				19000							6.9		COc1ccc(C2CC(=O)C(Sc3ccccc3Cl)=C(O)C2)cc1 (configuration not stated)
	490				580							3.4		O=C1CC(c2c(Cl)cccc2Br)CC(O)=C1Sc1ccccc1Cl (configuration not stated)
> 5	430	> 5	117 (≈ 45.7 µg/mL)	12	830		> 5			24	> 5	4.9		N#Cc1ccccc1SC1=C(O)CC(c2c(Cl)cccc2Cl)CC1=O (configuration not stated)
> 5	1800	> 5	128 (≈ 51.2 µg/mL)	14	870	0.002	> 5	0.005	17	27	> 5		Vd [10]: 0.39 L; IC50 [11]: > 100 µM; IC50 [12]: > 100 µM; half-life [13]: 642 min; half-life [14]: 792 min; clearance [15]: 0.35 mL/min/kg; bioavailability [16]: 45%; AUC(0-t) at 24 h [17]: 60.3 µM·h; AUC(0-t) at 24 h [18]: 142 µM·h	O=C1CC(c2c(Cl)cccc2Cl)CC(O)=C1Sc1ccccc1Cl (configuration not stated)
	370				500							> 10		O=C1CC(c2c(Cl)ccc(Br)c2Cl)CC(O)=C1Sc1ccccc1Cl (configuration not stated)
> 5		> 5	143 (≈ 66.8 µg/mL)	18	15000		> 5			38	> 5	7.4		O=C1CC(c2c(C(F)(F)F)cccc2C(F)(F)F)CC(O)=C1Sc1ccccc1Cl (configuration not stated)
> 5	240	> 5	75 (≈ 32.6 µg/mL)	15	450	0.005	> 5	0.002	14	31	> 5	2		N#Cc1ccccc1SC1=C(O)CC(c2c(Cl)cccc2Br)CC1=O (configuration not stated)
> 5	500	> 5	117 (≈ 50.7 µg/mL)	17	1000		> 5			37	> 5			O=C1CC(c2c(Cl)cccc2C(F)(F)F)CC(O)=C1Sc1ccccc1Cl (configuration not stated)
	771000				1700								pKa [19]: 2.63; Kd [20]: 3.5 µM; IC50 [21]: 880 nM	O=C1CC(c2ccccc2)CC(O)=C1Sc1ccccc1[N+](=O)[O-] (configuration not stated)
	7100				5600									O=C1CC(c2cccc(Cl)c2)CC(O)=C1Sc1ccccc1Cl (configuration not stated)
